The source of these data is patent EP2108954A1, “A test system for detecting intracellular cyclic nucleotide level and methods and uses thereof” (Max-Planck-Gesellschaft zur Förderung der Wissenschaften …, priority 2008, dated 2009).

In assay [1] the target is T1, Or22a (Drosophila melanogaster, UniProt P81909).
T1 construct: expressed in transfected cells; host or cells: HEK293
T1 sequence (P81909 1-397): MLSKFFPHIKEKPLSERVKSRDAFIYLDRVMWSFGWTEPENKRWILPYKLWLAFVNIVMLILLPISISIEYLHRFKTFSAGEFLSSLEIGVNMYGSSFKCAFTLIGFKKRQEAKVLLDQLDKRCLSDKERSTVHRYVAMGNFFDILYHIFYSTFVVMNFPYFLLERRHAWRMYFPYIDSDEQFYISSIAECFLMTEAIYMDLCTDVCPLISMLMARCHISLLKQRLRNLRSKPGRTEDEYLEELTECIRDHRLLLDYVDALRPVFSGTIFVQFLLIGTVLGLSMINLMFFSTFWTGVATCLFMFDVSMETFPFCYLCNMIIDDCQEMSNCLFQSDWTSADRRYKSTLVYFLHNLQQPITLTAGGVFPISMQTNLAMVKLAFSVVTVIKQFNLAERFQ
Description: Whole-cell patch-clamp of HEK293 cells expressing Or22a alone. In kind it is cell-based. The following applies: HEK293 cells transfected with Or22a alone, -60 mV, n = 6. The procedure: HEK293 cells were cultured as described by Wicher and colleagues (Wicher et al., J. Biol. Chem. 281, 3227-36 (2006)). In brief, HEK293 cells were cultured at a density of ∼2*10^4 per 35-mm dish and transfected with 1 µg pcDNA3-DOR22a-GFP and 1 µg pcDNA3-DOR83b-GFP (Neuhaus, et al., Nat. Neurosci. 8, 15-17 (2005); DNAs were a generous gift of Dr. E. Neuhaus and Dr. H. Hatt) using Roti-Fect transfection kit (Roth, Karlsruhe, Germany). In some experiments we transfected cells with pcDNA3-DOR22a-GFP or pcDNA3-DOR83b-GFP alone. We also examined the properties of DOR47a, which was cloned, using standard molecular biology methods into a pcDNA3.1(-) expression vector. To test for putative G-protein coupling, cells were transfected with the respective OR-DNA together with 1.5 µg hHCN2/pcDNA3 (provided by M. Biel, Munich, Germany), with 1 µg hKCNQ4/pcDNA3.1 or with 1 µg hCNGA2/pCMV6-XL4 (Origene, Rockville, MD, USA).
Ion currents in HEK293 cells were measured with the patch-clamp technology as described (Wicher et al, J. Biol. Chem. 281, 3227-36 (2006)). In brief, ion currents in HEK293 cells were measured at room temperature using whole-cell patch-clamp with appropriate compensation of series resistance and of capacitive currents. Additional experiments were performed in the outside-out configuration. […]
On the technique in general: In patch-clamp work, channel activity is measured electrically.

The test system of assay [2] is hCNGA2. Description: Calcium imaging (fura-2) in HEK293 cells expressing hCNGA2 and Or22a. It is filed as cell-based, human. The note with it: most prominent near the plasma membrane (Fig. 5d). As to the method:
Free intracellular Ca^2+ concentration ([Ca^2+]i) was determined by fura-2 fluorescence as described (Messutat et al., Cell Calcium 30, 199-211. (2001)). In brief, cells were loaded with fura-2 by incubation in bath solution containing 2 µM fura-2/acetomethylester for 20 min. Free intracellular Ca^2+ concentration ([Ca^2+]i) was determined with the fluorescence ratio method. Excitation of fura-2 at 340 and 380 nm was performed with a monochromator (Polychrome II, T.I.L.L. Photonics, Gräfelfing, Germany) coupled via an epifluorescence condenser into an Axioskop FS microscope (Carl Zeiss, Jena, Germany) with a water immersion objective (LUMPFL 40xW/IR/0.8; Olympus, Hamburg, Germany). […] [Ca^2+]i was calculated according to the equation [Ca^(2 +)]i = Keff (R-Rmin)/(Rmax-R). […] Keff, Rmin, and Rmax were determined using HEK293 cells permeabilized with 2 µM ionomycin and three solutions with different concentrations of free Ca^2+ (Ca^2+ free; 5 mM Ca^2+; 500 nM Ca^2+; the composition of the 500 nM solution was calculated with WEBMAXC v.2.20) (Patton et al., Cell Calcium 35, 427-31 (2004)). […]
Fluorescence images were acquired using a cooled CCD camera controlled by TILLVision 4.0 software (T.I.L.L. Photonics). […] Image pairs were obtained by excitation for 100 ms at 340 nm and 380 nm; background fluorescence was subtracted.

The structures appear in SMILES notation.

With `CCCC(=O)OCC` [Etb, ethyl butyrate], the “inward current upon short Etb application” value in assay [1] was “no current was observed”. Moreover, in assay [2], the “[Ca^2+]i” value was “produced an increase in [Ca^2+]i”.
